Data: patent US5217969A, “Benzoxazine derivatives as inhibitors of leukotrienes” (Imperial Chemical Industries PLC, priority 1990, dated 1993)

Assays:
5-LO [1] = biological target: T1, 5-LO (Homo sapiens, UniProt P09917); test: test b) heparinised human blood challenged with A23187, LTB4 radioimmunoassay; type: cell-based
T1 construct: heparinised human blood, prior to challenge with the calcium ionophore A23187; endogenous in cells; host or cells: heparinised human blood (endogenous enzyme of the blood cells)
T1 sequence (P09917 1-674): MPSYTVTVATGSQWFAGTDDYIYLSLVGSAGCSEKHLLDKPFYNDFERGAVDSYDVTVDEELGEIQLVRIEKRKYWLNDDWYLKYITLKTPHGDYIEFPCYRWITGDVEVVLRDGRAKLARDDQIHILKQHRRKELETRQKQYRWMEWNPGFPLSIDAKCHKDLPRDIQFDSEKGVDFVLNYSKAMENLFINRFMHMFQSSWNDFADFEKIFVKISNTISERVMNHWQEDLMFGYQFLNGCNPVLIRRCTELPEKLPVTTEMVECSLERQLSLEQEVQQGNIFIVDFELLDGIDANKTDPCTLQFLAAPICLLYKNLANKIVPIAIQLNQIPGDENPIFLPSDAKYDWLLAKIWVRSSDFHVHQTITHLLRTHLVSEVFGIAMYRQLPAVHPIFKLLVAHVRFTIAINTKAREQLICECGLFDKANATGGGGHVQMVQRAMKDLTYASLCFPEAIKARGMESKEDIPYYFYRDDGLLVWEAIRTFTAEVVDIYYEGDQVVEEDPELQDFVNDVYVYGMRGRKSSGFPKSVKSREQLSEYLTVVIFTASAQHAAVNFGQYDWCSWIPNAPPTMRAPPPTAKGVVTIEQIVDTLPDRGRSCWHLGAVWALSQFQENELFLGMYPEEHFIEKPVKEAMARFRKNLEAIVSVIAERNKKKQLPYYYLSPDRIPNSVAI
Experimental: b) An in vitro assay system involving incubating a test compound with heparinised human blood, prior to challenge with the calcium ionophore A23187 and then indirectly measuring the inhibitory effects on 5-LO by assaying the amount of LTB4 using the specific radioimmunoassays described by Carey and Forder (F. Carey and R. A. Forder, Prostaglandins, Leukotrienes Med., 1986, 22, 57; Prostaglandins, 1984, 28, 666; Brit. J. Pharmacol. 1985, 84, 34P) which involve the use of a protein-LTB4 conjugate produced using the procedure of Young et alia (Prostaglandins, 1983, 26(4), 605-613). The effects of a test compound on the enzyme cyclooxygenase (which is involved in the alternative metabolic pathway for arachidonic acid and gives rise to prostaglandins, thromboxanes and related metabolites) may be measured at the same time using the specific radioimmunoassay for thromboxane B2 (T×B2) described by Carey and Forder (see above). This test provides an indication of the effects of a test compound against 5-LO and also cyclooxygenase in the presence of blood cells and proteins. It permits the selectivity of the inhibitory effect on 5-LO or cyclooxygenase to be assessed.

5-LO [2] = biological target: T2, 5-LO (Rattus norvegicus, UniProt P12527); test: test g) liberation of LTB4 induced by zymosan within an air pouch of male rats; type: in vivo; conditions: oral
T2 construct: liberation of LTB4 induced by zymosan within an air pouch generated within the subcutaneous tissue of the back of male rats; endogenous in cells; host or cells: living male rats; endogenous enzyme of cells in the zymosan-inflamed subcutaneous air pouch
T2 sequence (P12527 1-673): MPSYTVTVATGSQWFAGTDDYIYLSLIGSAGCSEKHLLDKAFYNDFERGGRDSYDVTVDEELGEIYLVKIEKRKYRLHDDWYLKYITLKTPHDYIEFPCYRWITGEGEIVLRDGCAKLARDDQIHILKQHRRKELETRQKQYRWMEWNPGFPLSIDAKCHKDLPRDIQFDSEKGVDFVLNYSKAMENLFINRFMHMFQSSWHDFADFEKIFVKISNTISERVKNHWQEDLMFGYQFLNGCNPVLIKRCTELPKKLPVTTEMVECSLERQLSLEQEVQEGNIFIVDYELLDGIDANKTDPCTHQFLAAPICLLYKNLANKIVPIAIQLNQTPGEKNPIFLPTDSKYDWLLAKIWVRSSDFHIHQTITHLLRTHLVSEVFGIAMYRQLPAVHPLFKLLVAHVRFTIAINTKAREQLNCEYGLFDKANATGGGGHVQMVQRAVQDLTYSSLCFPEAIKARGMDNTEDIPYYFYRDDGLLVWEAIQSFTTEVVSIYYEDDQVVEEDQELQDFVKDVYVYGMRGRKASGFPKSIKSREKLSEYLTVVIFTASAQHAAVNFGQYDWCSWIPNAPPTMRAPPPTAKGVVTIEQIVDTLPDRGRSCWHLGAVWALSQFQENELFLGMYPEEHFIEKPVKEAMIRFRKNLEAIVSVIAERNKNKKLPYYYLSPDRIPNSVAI
Experimental: g) An in vivo system involving measuring the effects of a test compound administered orally against the liberation of LTB4 induced by zymosan within an air pouch generated within the subcutaneous tissue of the back of male rats. The rats are anaesthetised and air pouches are formed by the injection of sterile air (20 ml). A further injection of air (10 ml) is similarly given after 3 days. At 6 days after the initial air injection the test compound is administered (usually orally as the suspension produced when a solution of the test compound in dimethylsulphoxide is added to hydroxypropylmethylcellulose), followed by the intrapouch injection of zymosan (1 ml of a 1% suspension in physiological saline). After 3 hours the rats are killed, the air pouches are lavaged with physiological saline, and the specific radioimmunoassay described above is used to assay LTB4 in the washings. This test provides an indication of inhibitory effects against 5-LO in an inflammatory milieu.

SMILES	IC50 (5-LO [1]) [nM]	ED50 (5-LO [2]) [mg/kg]
COC1(c2cc(F)cc(OCc3ccc4c(c3)OCC(=O)N4C)c2)CCOCC1 [Example 1, 4-[5-fluoro-3-(4-methyl-3-oxo-2,3-dihydro-4H-1,4-benzoxazin-7-ylmethoxy)phenyl]-4-methoxytetrahydropyran]	40	0.4
COC1(c2cc(F)cc(OCc3ccc4c(c3)OC(C)(C)C(=O)N4C)c2)CCOCC1 [Example 2, 4-[5-fluoro-3-(2,2,4-trimethyl-3-oxo-2,3-dihydro-4H-1,4-benzoxazin-7-ylmethoxy)phenyl]-4-methoxytetrahydropyran]	50	1.5
COC1(c2cc(F)cc(Sc3ccc4c(c3)OCC(=O)N4C)c2)CCOCC1 [Example 5, 4-[5-fluoro-3-(4-methyl-3-oxo-2,3-dihydro-4H-1,4-benzoxazin-7-ylthio)phenyl]-4-methoxytetrahydropyran]	50	0.15
COC1(c2cc(F)cc(Sc3ccc4c(c3)OCC(=S)N4C)c2)CCOCC1 [Example 7, 4-[5-fluoro-3-(4-methyl-3-thioxo-2,3-dihydro-4H-1,4-benzoxazin-7-ylthio)phenyl]-4-methoxytetrahydropyran]	300	1.5
